Test results as given in ChEMBL document CHEMBL5154782, “Discovery of Potent PROTACs Targeting EGFR Mutants through the Optimization of Covalent EGFR Ligands” (J Med Chem, 2022).
Active and inactive are the calls of the source. The calls are words filed in the database; no cut-off is given here.

Key:
NCI-H1975 [1] = assay: Antiproliferative activity against human NCI-H1975 cells expressing EGFR L858R/T790M mutant assessed as inhibition of cell proliferation; assay type: functional, cell-based
[2] = biological target: von Hippel-Lindau disease tumor suppressor/Epidermal growth factor receptor (Homo sapiens, UniProt P00533+P40337, L858R/T790M); assay: Protac activity at VHL/EGFR L858R/T790M mutant (unknown origin) assessed as inhibition of EGFR incubated for 40 mins in presence of ATP by Kinase Glo luminescence assay; assay type: protein assay
NCI-H1975 [3] = assay: Antiproliferative activity against human NCI-H1975 cells expressing EGFR L858R/T790M mutant assessed as inhibition of cell proliferation incubated for 72 hrs by MTT assay; assay type: functional, cell-based; conditions: NCI-H1975, 72 h
A-431 = assay: Antiproliferative activity against human A-431 cells expressing EGFR wildtype assessed as inhibition of cell proliferation incubated for 72 hrs by MTT assay; assay type: functional, cell-based; conditions: A-431, 72 h
HCC827 [4] = assay: Antiproliferative activity against human HCC827 cells expressing EGFR deletion19 mutant assessed as inhibition of cell proliferation incubated for 72 hrs by MTT assay; assay type: functional, cell-based; conditions: HCC827, 72 h
[5] = biological target: von Hippel-Lindau disease tumor suppressor/Epidermal growth factor receptor (Homo sapiens, UniProt P00533+P40337, L858R); assay: Protac activity at VHL/EGFR L858R mutant (unknown origin) assessed as inhibition of EGFR incubated for 40 mins in presence of ATP by Kinase Glo luminescence assay; assay type: protein assay
HCC827 [6] = assay: Antiproliferative activity against human […] assessed as inhibition of cell proliferation incubated for 72 hrs by MTT assay; assay type: functional, cell-based; conditions: HCC827, 72 h
[7] = system: Protein cereblon/Epidermal growth factor receptor (Homo sapiens), P00533+Q96SW2 [L858R,T790M,C797S]; assay: Protac activity at CRBN/EGFR L858R/T790M/C797S mutant in mouse BaF3 cells assessed as induction of EGFR degradation at 100 nM; assay type: cell-based
[8] = system: Protein cereblon/Epidermal growth factor receptor (Homo sapiens), P00533+Q96SW2 [L858R,T790M]; assay: Protac activity at CRBN/EGFR L858R/T790M mutant in mouse BaF3 cells assessed as induction of EGFR degradation at 100 nM; assay type: cell-based
[9] = biological target: von Hippel-Lindau disease tumor suppressor/Epidermal growth factor receptor (Homo sapiens, UniProt P00533+P40337); assay: Protac activity at VHL/EGFR deletion19 mutant in human HCC827 cells assessed as induction of EGFR degradation; assay type: cell-based
HCC827 [10] = assay: Antiproliferative activity against human HCC827 cells expressing EGFR deletion19 mutant assessed as inhibition of cell proliferation; assay type: functional, cell-based
[11] = system: von Hippel-Lindau disease tumor suppressor/Epidermal growth factor receptor (Homo sapiens), P00533+P40337 [L858R,T790M]; assay: Protac activity at VHL/[…] cells assessed as induction of EGFR degradation at 1000 nM incubated for 24 hrs by Western blot analysis relative to control; assay type: cell-based
[12] = system: von Hippel-Lindau disease tumor suppressor/Epidermal growth factor receptor (Homo sapiens), P00533+P40337 [L858R,T790M]; assay: Protac activity at VHL/EGFR L858R/T790M mutant in human NCI-H1975 cells assessed as induction of EGFR degradation at 1000 nM incubated for 24 hrs by Western blot analysis relative to control; assay type: cell-based
[13] = system: von Hippel-Lindau disease tumor suppressor/Epidermal growth factor receptor (Homo sapiens), P00533+P40337 [L858R,T790M]; assay: Protac activity at VHL/EGFR L858R/T790M mutant in human NCI-H1975 cells assessed as induction of EGFR degradation at 100 nM incubated for 24 hrs by Western blot analysis relative to control; assay type: cell-based
[14] = system: von Hippel-Lindau disease tumor suppressor/Epidermal growth factor receptor (Homo sapiens), P00533+P40337 [L858R,T790M]; assay: Protac activity at VHL/[…] cells assessed as induction of EGFR degradation at 100 nM incubated for 24 hrs by Western blot analysis relative to control; assay type: cell-based
[15] = system: von Hippel-Lindau disease tumor suppressor/Epidermal growth factor receptor (Homo sapiens), P00533+P40337 [UNDEFINED MUTATION]; assay: Protac activity at VHL/EGFR/deletion19 in human HCC827 cells assessed as induction of EGFR degradation at 30 nM incubated for 24 hrs by Western blot analysis relative to control; assay type: cell-based
HCC827 [16] = assay: Inhibition of colony formation in human HCC827 cells at 1 to 30 nM incubated for 10 days by crystal violet based assay; assay type: functional, cell-based; conditions: dose 1-30 nM, time 10.0 day
NCI-H1975 [17] = assay: Inhibition of colony formation in human NCI-H1975 cells at 1 to 30 nM incubated for 10 days by crystal violet based assay; assay type: functional, cell-based; conditions: dose 1-30 nM, time 10.0 day
[18] = system: von Hippel-Lindau disease tumor suppressor/Epidermal growth factor receptor (Homo sapiens), P00533+P40337 [L858R,T790M]; assay: Protac activity at VHL/EGFR L858R/T790M mutant in human NCI-H1975 cells assessed as induction of EGFR degradation at 10 nM incubated for 24 hrs by Western blot analysis relative to control; assay type: cell-based
[19] = system: von Hippel-Lindau disease tumor suppressor/Epidermal growth factor receptor (Homo sapiens), P00533+P40337 [UNDEFINED MUTATION]; assay: Protac activity at VHL/EGFR/deletion19 in human HCC827 cells assessed as induction of EGFR degradation at 3 nM incubated for 24 hrs by Western blot analysis relative to control; assay type: cell-based

With C=CC(=O)Nc1cccc(-n2c(=O)cc(C)c3cnc(Nc4ccc(N5CCN(CCCCCC(=O)N[C@H](C(=O)N6C[C@H](O)C[C@H]6C(=O)NCc6ccc(-c7scnc7C)cc6)C(C)(C)C)CC5)cc4OC)nc32)c1 as the compound, how does the IC50 (NCI-H1975 [1]) read?
Its IC50 is 510 nM.

For C=CC(=O)N1CC[C@H](n2c(Nc3ccccc3)nc3cnc(Nc4ccc(N5CCN(C)CC5)cc4)nc32)C1, which IC50 [2] is on record?
Its IC50 is 23 nM.

What about the IC50 (NCI-H1975 [3]) of the same compound?
The IC50 was 15 nM.

What about the IC50 (A-431) of the same compound?
The IC50 was 2900 nM.

And the IC50 (HCC827 [4])?
The IC50 was 0.47 nM.

What about the IC50 [5] of the same compound?
Its IC50 is 10 nM.

C=CC(=O)N1CC[C@@H](n2c(Nc3ccccc3)nc3cnc(Nc4ccc(N5CCN(CCCCCCC(=O)N[C@H](C(=O)N6C[C@H](O)C[C@H]6C(=O)NCc6ccc(-c7scnc7C)cc6)C(C)(C)C)CC5)cc4)nc32)C1 was tested. Which IC50 (HCC827 [6]) did it give?
Its IC50 is 12.4 nM.

What about the IC50 (NCI-H1975 [3]) of the same compound?
Its IC50 is 550 nM.

O=C1CCC(N2C(=O)c3cccc(NCCOCCOCCOCCN4CCN(c5ccc(-c6ccc7c(c6)C(=O)N(C(C(=O)Nc6nccs6)c6ccccc6)C7)cn5)CC4)c3C2=O)C(=O)N1 (stereo not given) was tested. Which Activity [7] did it give?
Its Activity is 74%.

And the Activity [8]?
Its Activity is 59%.

Which DC50 [9] does the source give for O=C1CCC(N2Cc3c(NC(=O)CCCCCCN4CCN(c5ccc(Nc6cc7c(N8CCC(CO)CC8)nc(Nc8ccc(F)cc8)nc7cn6)nc5)CC4)cccc3C2=O)C(=O)N1 (stereo not given) here?
The DC50 was 34.8 nM.

What about the IC50 (HCC827 [10]) of the same compound?
The IC50 was 220 nM.

For COc1cc(N(C)CCN(C)C)c(NC(=O)/C=C/CN(C)CCCCCCCCCC(=O)N[C@H](C(=O)N2C[C@H](O)C[C@H]2C(=O)NCc2ccc(-c3scnc3C)cc2)C(C)(C)C)cc1Nc1nccc(-c2cn(C)c3ccccc23)n1, which IC50 (NCI-H1975 [3]) is on record?
Its IC50 is 985 nM.

What about the IC50 (A-431) of the same compound?
The IC50 was 840 nM.

And the IC50 (HCC827 [4])?
The IC50 was 61 nM.

What about the Activity [11] of the same compound?
Its Activity is 30%.

And the Activity [12]?
The Activity was under 20%.

And the Activity [13]?
Its Activity is under 20%.

What about the Activity [14] of the same compound?
The Activity was under 20%.

Which Activity [15] does the source give for C=CC(=O)N1CCC[C@H](n2c(Nc3ccccc3)nc3cnc(Nc4ccc(N5CCN(CCCCCCCC(=O)N[C@H](C(=O)N6C[C@H](O)C[C@H]6C(=O)NCc6ccc(-c7scnc7C)cc6)C(C)(C)C)CC5)cc4)nc32)C1 here?
The Activity was 78%.

What about the inhibition (HCC827 [16]) of the same compound?
The inhibition was “Active”.

And the IC50 (NCI-H1975 [3])?
The IC50 was 39 nM.

And the IC50 (A-431)?
The IC50 was over 10000 nM.

What about the IC50 (HCC827 [4]) of the same compound?
Its IC50 is 2.55 nM.

What about the inhibition (NCI-H1975 [17]) of the same compound?
Its inhibition is “Active”.

And the Activity [18]?
The Activity was under 20%.

What about the Activity [19] of the same compound?
Its Activity is 69%.

And the Activity [13]?
The Activity was 74%.

C=CC(=O)N1CCC[C@H](n2c(Nc3ccccc3)nc3cnc(Nc4ccc(N5CCN(CC(=O)NCCCCCCC(=O)N[C@H](C(=O)N6C[C@H](O)C[C@H]6C(=O)NCc6ccc(-c7scnc7C)cc6)C(C)(C)C)CC5)cc4)nc32)C1 was tested. Which Activity [15] did it give?
Its Activity is 77%.

And the IC50 (NCI-H1975 [3])?
The IC50 was 127 nM.

What about the IC50 (HCC827 [4]) of the same compound?
Its IC50 is 8.93 nM.

What about the Activity [18] of the same compound?
The Activity was under 20%.

And the Activity [19]?
The Activity was 63%.

And the Activity [13]?
The Activity was under 20%.

With COc1cc(N(C)CCN(C)C)c(NC(=O)/C(C#N)=C/C(C)(C)NC(=O)CCCCCCC(=O)N[C@H](C(=O)N2C[C@H](O)C[C@H]2C(=O)NCc2ccc(-c3scnc3C)cc2)C(C)(C)C)cc1Nc1nccc(-c2cn(C)c3ccccc23)n1 as the compound, how does the IC50 [2] read?
The IC50 was 857 nM.

What about the IC50 (NCI-H1975 [3]) of the same compound?
Its IC50 is 2360 nM.

What about the IC50 (HCC827 [4]) of the same compound?
Its IC50 is 544 nM.

And the Activity [11]?
The Activity was 26%.

And the Activity [12]?
Its Activity is under 20%.

What about the Activity [13] of the same compound?
The Activity was under 20%.

And the Activity [14]?
Its Activity is under 20%.

Which results are given for COc1cc(N(C)CCN(C)C)c(NC(=O)/C=C/CN(C)CCN(C)C(=O)CCCCCCC(=O)N[C@H](C(=O)N2C[C@H](O)C[C@H]2C(=O)NCc2ccc(-c3scnc3C)cc2)C(C)(C)C)cc1Nc1nccc(-c2cn(C)c3ccccc23)n1?
IC50 (NCI-H1975 [3]): 1690 nM; IC50 (A-431): > 10000 nM; IC50 (HCC827 [4]): 130 nM; Activity [11]: 24%; Activity [12]: < 20%; Activity [13]: < 20%; Activity [14]: < 20%

With C=CC(=O)N1CCC[C@H](n2c(Nc3ccccc3)nc3cnc(Nc4ccc(N5CCN(CCCCCCC(=O)N[C@H](C(=O)N6C[C@H](O)C[C@H]6C(=O)NCc6ccc(-c7scnc7C)cc6)C(C)(C)C)CC5)cc4)nc32)C1 as the compound, how does the Activity [15] read?
Its Activity is 70%.

What about the IC50 (NCI-H1975 [3]) of the same compound?
The IC50 was 40 nM.

And the IC50 (A-431)?
The IC50 was over 10000 nM.

What about the IC50 (HCC827 [4]) of the same compound?
Its IC50 is 1.67 nM.

What about the Activity [18] of the same compound?
Its Activity is 49%.

What about the Activity [19] of the same compound?
Its Activity is 62%.

And the Activity [13]?
Its Activity is 69%.
